Data: patent publication US12435061B2 (priority 2020, dated 2025)

Experiments:
hTRPV3 [1] = molecular target: T1, hTRPV3 (Homo sapiens (Human), UniProt Q8NET8); experiment: hTRPV3 HAMA IC50 assay (Hamamatsu FDSS6000 calcium flux, TRex-293 cells)
Procedure: IC50s were calculated using CBIS from ChemInnovation (San Diego).

[2] = Aqueous solubility assay in Normal Ringer Solution; settings: Normal Ringer Solution, room temperature
Procedure: Following vortex and incubation for a sufficient time (e.g. 40 minutes at room temperature), solutions were filtered, quenched with acetonitrile, and analyzed by Liquid Chromotography. Solubility Limits were determined by comparison to a standard curve.

hTRPV3 [3] = molecular target: T1, hTRPV3; experiment: Whole-cell patch clamp, hTRPV3 Phase 1 / Phase 2 currents; format: cell-based
Outline: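 Currents are activated by 20 μM 2-APB or by perfusate at 28 °C or warmer, in Ringer's solution, and quantified at ±80 mV.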

[4] = Phase 1 current, inward, whole-cell patch clamp, read-out: hTRPV3 Patch P1 Inwd
[5] = Phase 1 current, read-out: hTRPV3 (nM) (Phase 1)
[6] = Phase 2 current, inward, whole-cell patch clamp, read-out: hTRPV3 Patch P2 Inwd
[7] = Phase 2 current, read-out: hTRPV3 (nM) (Phase 2)

T1 sequence (Q8NET8 whole entry): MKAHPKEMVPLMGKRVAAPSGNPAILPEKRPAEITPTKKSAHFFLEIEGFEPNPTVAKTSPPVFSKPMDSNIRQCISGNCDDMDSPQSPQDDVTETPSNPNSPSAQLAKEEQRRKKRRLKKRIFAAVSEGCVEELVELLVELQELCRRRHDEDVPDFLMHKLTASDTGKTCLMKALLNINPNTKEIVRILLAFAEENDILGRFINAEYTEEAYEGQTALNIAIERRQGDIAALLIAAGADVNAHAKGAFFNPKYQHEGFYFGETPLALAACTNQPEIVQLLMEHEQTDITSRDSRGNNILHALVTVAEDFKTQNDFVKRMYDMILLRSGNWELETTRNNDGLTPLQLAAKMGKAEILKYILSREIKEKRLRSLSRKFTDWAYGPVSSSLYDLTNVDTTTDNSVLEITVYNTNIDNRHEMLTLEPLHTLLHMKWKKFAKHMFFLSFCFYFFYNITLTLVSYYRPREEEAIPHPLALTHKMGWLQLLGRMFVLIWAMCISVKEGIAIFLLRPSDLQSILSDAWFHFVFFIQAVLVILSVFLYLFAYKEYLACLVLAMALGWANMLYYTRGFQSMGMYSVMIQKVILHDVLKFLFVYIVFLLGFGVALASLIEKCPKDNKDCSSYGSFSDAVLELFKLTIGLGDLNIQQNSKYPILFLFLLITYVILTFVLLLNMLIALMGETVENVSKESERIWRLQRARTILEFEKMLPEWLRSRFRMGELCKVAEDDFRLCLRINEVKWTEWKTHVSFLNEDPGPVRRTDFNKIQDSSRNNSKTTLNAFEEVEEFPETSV

SMILES	IC50 (hTRPV3 [1]; hTRPV3 HAMA IC50 (nM) (5 min), 5 min)	IC50 (hTRPV3 [1]; hTRPV3 HAMA IC50 (nM) (30 min), 30 min)	Solubility Ringer (nM) [2]	IC50 (hTRPV3 [3]; [4])	IC50 (hTRPV3 [3]; [5])	hTRPV3 HAMA IC50 (nM) (5 min) (hTRPV3 [1]; 5 min)	IC50 (hTRPV3 [3]; [6])	IC50 (hTRPV3 [3]; [7])	hTRPV3 (nM) (Phase 1) (hTRPV3 [3])	hTRPV3 HAMA IC50 (nM) (30 min) (hTRPV3 [1]; 30 min)
OCCc1cc(Oc2ccccc2Cl)ccc1N1CC[C@H](Oc2ncccc2Cl)C1 [Compound 1-238, (S)-2-(5-(2-chlorophenoxy)-2-(3-(3-chloropyridin-2-yloxy)pyrrolidin-1-yl)phenyl)ethanol]	> 20000 nM	16700 nM	BLQ	10 to 100 nM	~51 nM	–	–	–	–	–
OCc1cc(-c2ccccc2OC(F)(F)F)ccc1N1CC[C@H](Oc2ccc(C(F)(F)F)cn2)C1 [Compound 1-161, (S)-(2′-(trifluoromethoxy)-4-(3-(5-(trifluoromethyl)pyridin-2-yloxy)pyrrolidin-1-yl)biphenyl-3-yl)methanol]	–	–	BLQ	10 to 100 nM	93.4 nM	no fit (5 min)	–	–	–	–
NC(=O)c1cc(-c2ccccc2Cl)ccc1N1CC[C@H](Oc2ccc(C(F)(F)F)cn2)C1 [Compound 1-64, (S)-2′-chloro-4-(3-(5-(trifluoromethyl)pyridin-2-yloxy)pyrrolidin-1-yl)biphenyl-3-carboxamide]	–	–	BLQ	100 to 1000 nM	145 nM	no fit (5 min)	100 to 1000 nM	160 nM	–	–
O=[N+]([O-])c1cc(-c2ccccc2)ccc1N1CC[C@H](Oc2ccc(C(F)(F)F)cn2)C1 [Compound 1-66, (S)-2-(1-(3-nitrobiphenyl-4-yl)pyrrolidin-3-yloxy)-5-(trifluoromethyl)pyridine]	–	–	BLQ	–	–	no fit (5 min)	–	–	Incomplete Block (Phase 1)	–
Cc1ccccc1Oc1ccc(N2CC[C@H](Oc3ccc(C(F)(F)F)cn3)C2)c(CO)n1 [Compound 1-226, (S)-(6-(o-tolyloxy)-3-(3-(5-(trifluoromethyl)pyridin-2-yloxy)pyrrolidin-1-yl)pyridin-2-yl)methanol]	–	–	–	100 to 1000 nM	~158 nM	no fit (5 min) no fit (30 min)	–	–	–	no fit (5 min) no fit (30 min)
Cc1ccccc1-c1ccc(CO)c(N2CC[C@H](Oc3ccc(C(F)(F)F)cn3)C2)c1 [Compound 1-239, (S)-(2′-methyl-3-(3-(5-(trifluoromethyl)pyridin-2-yloxy)pyrrolidin-1-yl)biphenyl-4-yl)methanol]	–	–	–	100 to 1000 nM	607 nM	no fit (5 min) no fit (30 min)	–	–	–	no fit (5 min) no fit (30 min)
CCc1ccccc1Oc1ccc(CO)c(N2CC[C@H](Oc3ccc(C(F)(F)F)cn3)C2)c1 [Compound 1-228, (S)-(4-(2-ethylphenoxy)-2-(3-(5-(trifluoromethyl)pyridin-2-yloxy)pyrrolidin-1-yl)phenyl)methanol]	–	–	–	10 to 100 nM	62.1 nM	no fit (5 min) no fit (30 min)	–	–	–	no fit (5 min) no fit (30 min)
CCc1ccccc1-c1ccc(N2CC[C@H](Oc3ccc(C)cn3)C2)c(CO)n1 [Compound 1-185, (S)-(6-(2-ethylphenyl)-3-(3-(5-methylpyridin-2-yloxy)pyrrolidin-1-yl)pyridin-2-yl)methanol]	–	–	–	> 1000 nM	> 3200 nM	no fit (5 min) no fit (30 min)	> 1000 nM	2950 nM	–	no fit (5 min) no fit (30 min)
Cc1cccnc1O[C@H]1CCN(c2ccc(-c3ccccc3Cl)cc2CCO)C1 [Compound 1-194, (S)-2-(2′-chloro-4-(3-(3-methylpyridin-2-yloxy)pyrrolidin-1-yl)biphenyl-3-yl)ethanol]	–	–	–	100 to 1000 nM	327 nM	no fit (5 min)	–	–	–	–
Cc1ccc(O[C@H]2CCN(c3ccc(-c4ccccn4)cc3CO)C2)nc1 [Compound 1-220, (S)-(2-(3-(5-methylpyridin-2-yloxy)pyrrolidin-1-yl)-5-(pyridin-2-yl)phenyl)methanol]	–	–	–	> 1000 nM	> 3200 nM	no fit (5 min) no fit (30 min)	–	–	–	no fit (5 min) no fit (30 min)
